From patent publication US7820714B2, “Siglec inhibitors” (priority 2001, dated 2010)
Where two headings read alike, the source gives them in different places.

Assays:
Siglec-2 (murine CD22) = target: T1, Siglec-2 (murine CD22) (Mus musculus, UniProt P35329); assay: Hapten inhibition assay, Siglec-2 (murine CD22); type: binding; details: for Siglec-2 (murine CD22) rIP: quotient IC50 reference compound / IC50 compound; for Siglec-2 (murine CD22) percentage in parentheses below the IC50 bound: at the concentration of the IC50 bound, meaning not defined in the patent
T1 sequence (P35329 22-148 limits assumed): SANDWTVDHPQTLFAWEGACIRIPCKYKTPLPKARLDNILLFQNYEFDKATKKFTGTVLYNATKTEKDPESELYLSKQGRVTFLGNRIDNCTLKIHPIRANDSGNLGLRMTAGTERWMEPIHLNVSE
Method: (§2) Preferably, the inhibition can be determined by a Hapten inhibition test. […] After overnight incubation at 4° C. the unbound complexes are removed by washing the cells and the bound radioactivity is determined. From the data obtained in this way, the concentrations are found which lead to 50% inhibition of the binding (IC50 values) (5, 6). Specially preferred during the Hapten inhibition test was 10 μl of the complex solution with an activity of 10^3 Bq ^125I mixed with the same volume of a solution of the substance to be investigated (concentrated three times) and incubated at 4° C. for one hour. Then followed the addition of 10 μl of a suspension of target cells, preferably 0.25 to 0.5% of human erythrocytes and incubation overnight at 4° C. The unbound radioactivity is removed by washing the cells five times with 200 μl of washing buffer, preferably phosphate-buffered saline with 0.1% (W/V) bovine serum albumin, and the cell-bound activity is determined with a γ-counter. […] The inhibition is determined in that the value without inhibitor is set to 0% and that with the sialidase-treated cells is set equal to 100%.
(§3) The IC50 value is the siglec inhibitor concentration which leads to 50% inhibition in the binding in the Hapten inhibition assay.

[1] = test system: primary B-lymphocytes from human blood; assay: Ca2+ concentration in primary B-lymphocytes stimulated with anti-IgM; type: cell-based
Excerpt: (§1) The compound BPC-Neu5Ac (shown below) was used according to known methods in test series for the investigation of the selectivity and the activity. […] This impairment with regard to the binding of ligands leads to an incomplete activation of the intracellular inhibitor domain of CD22.

Daudi cells = assay: Ca2+ concentration in Daudi cells stimulated with anti-IgM; type: cell-based; details: Daudi cells stimulated with anti-IgM in the presence of the compound
Excerpt: as §1

Siglec-2 (human CD22) = target: T2, Siglec-2 (human CD22) (Homo sapiens, UniProt P20273); assay: Hapten inhibition assay, Siglec-2 (human CD22); type: binding; details: for Siglec-2 (human CD22) rIP: quotient IC50 reference compound / IC50 compound
T2 sequence (P20273 20-138 limits assumed): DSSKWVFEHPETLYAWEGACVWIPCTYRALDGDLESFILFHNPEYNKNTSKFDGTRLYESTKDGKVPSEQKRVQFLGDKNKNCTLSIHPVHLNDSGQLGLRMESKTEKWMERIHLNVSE
Method: as §2, §3

Siglec-1 (sialoadhesin) = Siglec-1 (sialoadhesin) (Mus musculus, UniProt Q62230); assay: Hapten inhibition assay, Siglec-1 (sialoadhesin); type: binding; details: for Siglec-1 (sialoadhesin) rIP: quotient IC50 reference compound / IC50 compound; for Siglec-1 (sialoadhesin) percentage in parentheses below the IC50 bound: at the concentration of the IC50 bound, meaning not defined in the patent
Method: as §2, §3

Siglec-4a (MAG) = target: T3, Siglec-4a (MAG) (UniProt P20917); assay: Hapten inhibition assay, Siglec-4a (MAG); details: for Siglec-4a (MAG) rIP: quotient IC50 reference compound / IC50 compound; for IC50: read-out: Siglec-4a (MAG) IC50; for binds stronger to siglec-4a than the reference compound: relative to 2-alpha-methyl-5-N-acetyl-neuraminic acid
T3 sequence (P20917 1-627): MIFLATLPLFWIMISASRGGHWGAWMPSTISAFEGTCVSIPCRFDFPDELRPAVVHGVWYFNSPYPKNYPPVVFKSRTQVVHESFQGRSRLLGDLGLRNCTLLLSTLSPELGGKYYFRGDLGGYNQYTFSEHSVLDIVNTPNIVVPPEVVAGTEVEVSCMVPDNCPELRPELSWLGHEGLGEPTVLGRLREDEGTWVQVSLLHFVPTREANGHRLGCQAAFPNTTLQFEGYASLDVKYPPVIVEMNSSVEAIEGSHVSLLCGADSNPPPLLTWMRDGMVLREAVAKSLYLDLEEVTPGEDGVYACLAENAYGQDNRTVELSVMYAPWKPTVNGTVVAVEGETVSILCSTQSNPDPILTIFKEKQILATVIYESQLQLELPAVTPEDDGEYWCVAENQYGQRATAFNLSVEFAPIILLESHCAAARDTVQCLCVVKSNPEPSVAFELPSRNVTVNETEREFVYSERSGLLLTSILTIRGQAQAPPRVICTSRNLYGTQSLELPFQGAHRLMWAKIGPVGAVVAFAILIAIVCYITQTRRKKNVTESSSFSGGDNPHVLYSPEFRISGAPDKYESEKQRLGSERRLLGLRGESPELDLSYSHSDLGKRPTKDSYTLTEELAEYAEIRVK
Method: Preferably, the inhibition can be determined by a Hapten inhibition test. […] After overnight incubation at 4° C. the unbound complexes are removed by washing the cells and the bound radioactivity is determined. […] Then followed the addition of 10 μl of a suspension of target cells, preferably 0.25 to 0.5% of human erythrocytes and incubation overnight at 4° C. The unbound radioactivity is removed by washing the cells five times with 200 μl of washing buffer, preferably phosphate-buffered saline with 0.1% (W/V) bovine serum albumin, and the cell-bound activity is determined with a γ-counter. […] The inhibition is determined in that the value without inhibitor is set to 0% and that with the sialidase-treated cells is set equal to 100%.

[2] = at the concentration of the IC50 bound, meaning not defined in the patent

Sequence of Siglec-1 (sialoadhesin) (Q62230 20-136 limits assumed): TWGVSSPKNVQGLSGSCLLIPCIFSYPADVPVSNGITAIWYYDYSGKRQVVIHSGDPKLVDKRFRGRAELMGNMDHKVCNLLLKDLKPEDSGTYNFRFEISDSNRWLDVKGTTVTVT

| Siglec-2 (murine CD22) rIP (Siglec-2 (murine CD22)) | IC50 (Siglec-2 (murine CD22); unit inferred) | Siglec-2 (human CD22) rIP (Siglec-2 (human CD22)) | IC50 (Siglec-2 (human CD22); unit inferred) | Siglec-1 (sialoadhesin) rIP (Siglec-1 (sialoadhesin)) | IC50 (Siglec-1 (sialoadhesin); unit inferred) | Siglec-4a (MAG) rIP (Siglec-4a (MAG)) | IC50 (Siglec-4a (MAG); unit inferred) | Siglec-1 (sialoadhesin) percentage in parentheses below the IC50 bound (Siglec-1 (sialoadhesin)) | IC50 (Siglec-1 (sialoadhesin); bounds given in mM) | SMILES | also measured |
| --- | --- | --- | --- | --- | --- | --- | --- | --- | --- | --- | --- |
| 6.9 | 0.76 mM | 4.1 | 0.383 mM | 0.2 | – | 50 | 0.11 mM | (93%) | > 1 mM | CO[C@]1(C(=O)O)C[C@H](O)[C@@H](NC(C)=O)[C@H]([C@H](O)[C@H](O)CNC(=O)C2CCCCC2)O1 [Methyl-α-9-N-cyclohexanoyl-amino-9-desoxy-Neu5Ac] | – |
| 2.7 | 1.75 mM | 0.6 | 1.8 mM | 0.2 | 3.82 mM | 3.7 | 2.15 mM | – | – | CO[C@]1(C(=O)O)C[C@H](O)[C@@H](NC(C)=O)[C@H]([C@H](O)[C@H](O)CNC(C)=O)O1 [Methyl-α-9-N-acetyl-amino-9-desoxy-Neu5Ac] | – |
| <1.5 | – | <<2 | – | <0.8 | – | <<0.5 | – | (74%) | > 1 mM | COC1(C(=O)O)CC(O)C(O)C(C(O)C(O)CO)O1 (stereo not drawn) [Methyl-α-ketodesoxy-nonulsonic acid] | Siglec-2 (murine CD22) percentage in parentheses below the IC50 bound (Siglec-2 (murine CD22)): (74%); IC50 (Siglec-2 (murine CD22); bounds given in mM): > 2 mM; Siglec-2 (human CD22) percentage in parentheses below the IC50 bound (Siglec-2 (human CD22); [2]): (117%); IC50 (Siglec-2 (human CD22); bounds given in mM): > 1 mM; Siglec-4a (MAG) percentage in parentheses below the IC50 bound (Siglec-4a (MAG); [2]): (225%); IC50 (Siglec-4a (MAG); bounds given in mM): > 1 mM |
| 1.1 | 4.25 mM | 1.6 | 1.37 mM | 0.8 | 0.6 mM | 1.3 | 2.77 mM | – | – | CS[C@]1(C(=O)O)C[C@H](O)[C@@H](NC(C)=O)[C@H]([C@H](O)[C@H](O)CO)O1 [Methylthio-α-Neu5Ac] | – |
| 3.7 | 1.09 mM | 5.7 | 0.29 mM | 1.8 | 0.539 mM | 704 | 0.007 mM | – | – | CO[C@]1(C(=O)O)C[C@H](O)[C@@H](NC(C)=O)[C@H]([C@H](O)[C@H](O)CNC(=O)c2ccccc2)O1 [Methyl-α-9-N-benzoyl-amino-9-desoxy-Neu5Ac] | binds stronger to siglec-4a than the reference compound (Siglec-4a (MAG)): approximately 704 times |

More lines, now with the values behind:

| SMILES | Siglec-2 (murine CD22) rIP (Siglec-2 (murine CD22)) | IC50 (Siglec-2 (murine CD22); unit inferred) | Siglec-2 (human CD22) rIP (Siglec-2 (human CD22)) | IC50 (Siglec-2 (human CD22); unit inferred) | Siglec-1 (sialoadhesin) rIP (Siglec-1 (sialoadhesin)) | IC50 (Siglec-1 (sialoadhesin); unit inferred) | Siglec-4a (MAG) rIP (Siglec-4a (MAG)) | IC50 (Siglec-4a (MAG); unit inferred) | Siglec-1 (sialoadhesin) percentage in parentheses below the IC50 bound (Siglec-1 (sialoadhesin)) | IC50 (Siglec-1 (sialoadhesin); bounds given in mM) | also measured |
| --- | --- | --- | --- | --- | --- | --- | --- | --- | --- | --- | --- |
| CO[C@]1(C(=O)O)CC(O)[C@@H](NC(C)=O)C([C@@H](O)[C@H](O)CNC(=O)c2ccc(-c3ccccc3)cc2)O1 (stereo partly drawn) [Methyl-α-9-N-(biphenyl-4-carbonyl)-amino-9-desoxy-Neu5Ac] | 5.0 | 1.22 mM | 150 | 0.004 mM | 13 | 0.052 mM | 218 | 0.022 mM | – | – | Ca2+ concentration [1]: clearly increased Ca^2+ concentration; Ca2+ concentration (Daudi cells): rise in the Ca^2+ concentration; selectivity of affinity for hCD22 (Siglec-2 (human CD22); in words): very remarkable selective affinity for hCD22; binds stronger to siglec-2 than the reference compound (Siglec-2 (human CD22); relative to 2-alpha-methyl-5-N-acetyl-neuraminic acid): approximately 150 times |
| COC1(C(=O)O)CC(O)C(NC(C)=O)C(C(O)C(O)CNC(=O)c2ccc3ccccc3c2)O1 (stereo not drawn) [Methyl-α-9-N-(naphthyl-2-carbonyl)-amino-9-desoxy-Neu5Ac] | 18 | 0.27 mM | 167 | 0.006 mM | 12 | 0.078 mM | 236 | 0.02 mM | – | – | binds stronger to siglec-4a than the reference compound (Siglec-4a (MAG)): approx. 236 times |
| COC1(C(=O)O)CC(O)C(NC(C)=O)C(C(O)C(O)CNC(=O)c2ccc3ccccc3n2)O1 (stereo not drawn) [Methyl-α-9-N-(chinaldine-2-carbonyl)-amino-9-desoxy-Neu5Ac] | – | – | – | 0.041 mM | <<0.2 | – | 54 | 0.087 mM | (100%) | > 2.5 mM | Siglec-2 (murine CD22) percentage in parentheses below the IC50 bound (Siglec-2 (murine CD22)): (100%); IC50 (Siglec-2 (murine CD22); bounds given in mM): > 10 mM |
| CO[C@]1(C(=O)O)C[C@H](O)[C@@H](NC(C)=O)[C@H]([C@H](O)[C@H](O)CNC(=O)C(c2ccccc2)c2ccccc2)O1 [Methyl-α-9-N-(diphenylacetyl)-amino-9-desoxy-Neu5Ac] | – | 0.103 mM | – | 0.035 mM | 0.2 | 4.4 mM | 31 | 0.15 mM | – | – | – |
| CO[C@]1(C(=O)O)C[C@H](O)[C@@H](NC(C)=O)[C@H]([C@H](O)[C@H](O)CNC(=O)c2ccc([N+](=O)[O-])cc2[N+](=O)[O-])O1 [Methyl-α-9-N-(2,4-dinitrobenzoyl)-amino-9-desoxy-Neu5Ac] | 7.9 | 0.593 mM | 7.7 | 0.287 mM | 0.3 | 0.733 mM | 18 | 0.205 mM | – | – | – |
| COC1(C(=O)O)CC(O)C(NC(C)=O)C(C(O)C(O)CNC(=O)c2c(F)c(F)c(F)c(F)c2F)O1 (stereo not drawn) [Methyl-α-9-N-(pentafluorbenzoyl)-amino-9-desoxy-Neu5Ac] | 2.0 | 2.5 mM | 3.3 | 0.36 mM | 0.3 | 7 mM | 42 | 0.107 mM | – | – | – |
| CCOc1c(N[C@H]2[C@H]([C@H](O)[C@H](O)CO)O[C@@](OC)(C(=O)O)C[C@@H]2O)c(=O)c1=O [Methyl-α-5-N-(etoxycylcobutendion)-neuraminic acid] | 1.5 | 3.37 mM | 2.3 | 0.94 mM | <<0.15 | – | 0.5 | 4.3 mM | (92%) | > 5 mM | – |
| CO[C@]1(C(=O)O)C[C@H](O)[C@@H](NC(C)=O)[C@H]([C@H](O)[C@H](O)CNC(=O)c2ccc(NC(C)=O)cc2)O1 [Methyl-α-9-N-(acetamidobenzoyl)-amino-9-desoxy-Neu5Ac] | – | 1.03 mM | 2.4 | 0.58 mM | 3.0 | 0.295 mM | 77 | 0.062 mM | – | – | – |
